In brackets after ≈: the same amount, converted by molar mass. Like-named read-outs stand apart in the source and are kept apart here.

Series [1] is described as follows: Liposome loading: encapsulated drug-to-lipid ratio and encapsulation efficiency. Conditions: for Maximum encapsulated drug payload: 0.5 M AS. Format: physicochemical. On the procedure: 1. The lipid components (phospholipid (PhL), cholesterol, and optionally—a PEG-lipid derivative and/or a lipid fluorescent label were combined in an amount of 100% ethanol equal to one-tenth of a volume (V) calculated to obtain lipid suspension with about 60 mM phospholipid and stirred at the temperature of 65-68° C. until complete dissolution of the lipids.
2. The ethanolic lipid solution was combined with volume V of the trapping agent solution (0.25-0.5 M ammonium sulfate or 1 N triethylammonium sucrose octasulfate) upon stirring at 65-68° C. until a uniform suspension was obtained.
3. The lipid suspension was extruded at least three times through a stack of track-etched polycarbonate membranes, typically, two or four membranes with the nominal pore size of 100 nm and one with the nominal pore size 200 nm (Whatman Nuclepore, USA), using a thermobarrel extruder (Lipex, Canada) at 65-68° C., at the pressure of 400-450 psi. When two 100-nm membranes were used in a 100-ml Lipex extruder, the extrusion pressure was typically 260-300 psi. The resulting liposomes have Z-average particle size (diameter) Xz between about 80 and about 130 nm, and PDI less than 0.1.
5. An aliquot of the extruded, filtered liposome suspension so made was chromatographed on a gravity-fed Sepharose CL-4B size exclusion column (eluent-Type 1 water), to purify the liposomes from extraliposomal trapping agent. The purified liposomes were collected near the void volume fraction of the column. For a scale-up studies, this step was performed using a tangential flow filtration (TFF) on a hollow fiber cartridge (Repligen Spectrum MicroKros PS or mPES membrane with MWCO of 500 KDa) effecting 8-10 volume exchanges (or until the conductivity of the liposome suspension dropped below 200 μS/cm) with Type 1 or USP “Water for injection” endotoxin-free water.
6. The lipid concentration in a purified extruded liposome preparation was determined using HPLC with UV detection, by measuring the concentration of cholesterol and correcting for the known phospholipid/cholesterol molar ratio. Alternatively, a spectrophotometric blue phosphomolybdate method was used to directly quantify the phospholipid content.
7. The drug was dissolved in Type 1 or endotoxin-free pure water in the form of a hydrochloric acid salt (e.g., AKG-3 and AKG-5 were used as monohydrochloride, AKG-28 and AKG-29 were used as dihydrochloride) at the concentration of 5-20 mg/ml of the drug. To the drug prepared in free base form (e.g., AKG-16, AKG-38), an equivalent amount of HCl was added. If necessary, pH of the solution was brought between pH 2.5-5.5, using 1 N NaOH, HCL, or tris(hydroxymethyl)aminomethane (Tris)-base solution, and the solution was filtered through a 0.2-micron PES filter under positive pressure. When necessary, the drug concentration in the stock solution so made was verified by HPLC with UV detection at 305 nm.
8. Purified liposomes of step 5 and the drug stock solution were combined in the presence of an osmotic agent (typically dextrose) and water in the amounts necessary to provide a desired drug-to-phospholipid (DL) ratio, the drug concentration in the range 1.5-3.3 mg/ml, at the osmolality equal to the measured osmolality of the trapping agent solution of step 2. Optionally, a buffer at a desired pH (typically pH 4 to pH 7) was added. In some instances, the amount of added osmotic agent (e.g., dextrose at about 45 g/L) provided osmolality less that the measured osmolality of the trapping agent solution, and the loading was effected at 6-8 mg/ml of the drug.
9. The drug-liposome mixture was incubated with constant agitation at 65-68° C. for about 15-20 min and quickly chilled on ice. After 5-10 min, the mixture was allowed to reach ambient temperature an adjusted to 0.1M NaCl by adding a calculated amount of 3 M NaCl stock solution.
10. […] The liposome fractions were collected near the column void volume. […]

Series [2] deals with M. tuberculosis Erdman or H37Rv vs VERO or HepG2 cell lines. Put plainly: Selectivity Index (IC50 mammalian cells / MIC bacteria). Also on record: species or system Mycobacterium tuberculosis. Conditions: for Selectivity Index (SI) Erd/VERO: IC50 VERO / MIC Erdman; for Selectivity Index (SI) Erd/HepG2: IC50 HepG2 / MIC Erdman; for Selectivity Index (SI) H37Rv/HepG2: IC50 HepG2 / MIC H37Rv; for Selectivity Index (SI) H37Rv/VERO: IC50 VERO / MIC H37Rv.

In a further series the test system is M.tb Erdman. Put plainly: Broth microdilution MIC with Alamar blue endpoint (MABA), M.tb Erdman. The format is cell-based, Mycobacterium tuberculosis. Conditions: for MIC: Mycobacterium tuberculosis, ERDMAN, broth microdilution, MABA/OD600.
A further series concerns M.tb H37Rv. Nature of the series: Broth microdilution MIC with Alamar blue endpoint (MABA), M.tb H37Rv. Format: cell-based. Conditions: Mycobacterium tuberculosis, broth microdilution, MABA/OD600, read-out: Mycobacterium tuberculosis MIC, H37Rv.
The subject of series [3] is human hepatocyte/liver (HepG2; ATCC #HB8065) cells. Nature of the series: In vitro cytotoxicity (PrestoBlue cell viability), HepG2 cells. As to conditions: HepG2, 72 h, read-out: Cell viability IC50, HepG2.
Description: (§1) Data is reported out as the full cell viability curve, as well as a calculation of the actual IC50 value for each compound.
(§2) Adherent cells were grown to ˜80% confluency. […] The cell density was determined using a hemocytometer.
(§3) These compounds were provided as sterile aqueous solutions of HCl salts with a concentration of 5 mg/ml. For making dilutions, each drug stock was warmed to room temperature, vortexed and was visually inspected for precipitation. If solid drug was present, the stock was heated on a 60° C. water bath and then allowed to cool to near room temperature. Based on the treatment concentrations, 20× working stocks were made by serial dilution.
(§4) At the end of the compound incubation period, replace the media in each well with 100 μl of 1× PrestoBlue Cell Viability Reagent (ThermoFisher Cat #A13261). Incubate the plate at 37° C. in a humidified incubator with 5% CO2 30 min to 2 h. […] Read fluorescence with 560 nm excitation and 590 nm emission using SpectraMax M5 plate reader (Molecular Devices). Correct background by subtracting the RFU of the control containing only the culture medium (background control well) from all sample readings. Calculate the percentage of cytotoxicity using the formula below:
(§5) The IC50 was determined using GraphPad Prism using the following formula:
The subject of series [4] is African green monkey kidney (Vero; ATCC #CCL81) cells. Nature of the series: In vitro cytotoxicity (PrestoBlue cell viability), Vero cells. As to conditions: Chlorocebus sabaeus, 72 h, read-out: Cell viability IC50, VERO.
Description: as §1, §2, §3, §4, §5
The format of series [5] is physicochemical. On the procedure: To the resulting cake or syrup, water was added typically to the final 10 mg/ml, and complete dissolution was observed. […] Aqueous solubility of the compounds of the present disclosure is illustrated by the following observations of obtaining visually clear solutions: […]
The subject of series [6] is mitochondrial protein synthesis vs H37Rv M. tuberculosis. Nature of the series: MPS selectivity index (MPS IC50 / MIC H37Rv).
Series [7] relates to methicillin resistant Staphylococcus aureus (MRSA) ATCC BAA-1556. Put plainly: MIC against MRSA strain ATCC BAA-1556. Conditions: ATCCBAA1556|MRSA.
The test system of series [8] is methicillin resistant Staphylococcus aureus (MRSA) 880 NR-49120. Put plainly: MIC against MRSA strain 880 NR-49120. Conditions: read-out: MRSA MIC, strain 880 NR-49120.
The test system of series [9] is methicillin resistant Staphylococcus aureus (MRSA) ATCC 43300. Nature of the series: MIC against MRSA strain ATCC 43300. Conditions: read-out: MRSA MIC, strain ATCC 43300.
Where [10] appears, read: 1 N TEA-SOS, DL0 750-1500 g/mol PhL.

Turning to `CN(C)CCCC(=O)OC[C@H]1CN(c2ccc(-c3ccc(-c4nnn(C)n4)nc3)c(F)c2)C(=O)O1` [AKG-5], the “Maximum encapsulated drug payload” value in [1] (0.5 mol % PEG) came to 627 g/mol PhL. The Drug loading efficiency in [1] (0.5 mol % PEG-DSG, 1N TEA-SOS, DL0 500 g/mol PhL (Example 8, no added buffer)) amounted to 101.3; in [1] (0.5 mol % PEG-DSG, […] AS, DL0 250 g/mol PhL), 98.5; in series [1] (0.5 mol % PEG-DSG, […] AS, DL0 500 g/mol PhL) it was 97.7; in series [1] (5 mol % PEG-DSG, 1N TEA-SOS, DL0 500 g/mol PhL), 99.3. The “loading efficiency at or near the maximum drug load” value in series [1] (setting [10]) is not below 96.0%. Besides, the maximum drug load in series [1] (setting [10]) is given as 982-1197 g/mol PhL. Moreover, the “Selectivity Index (SI) Erd/VERO” value in series [2] stood at 32.5.
Take `CCN(CC)CCCNC[C@H]1CN(c2ccc(-c3ccc(-c4nnn(C)n4)nc3)c(F)c2)C(=O)O1` [AKG-8]: the MIC in the series with M.tb Erdman and with M.tb H37Rv was more than 8 µg/mL in each case.
Turning to `CCN(CC)CCNC[C@H]1CN(c2ccc(-c3ccc(-c4nnn(C)n4)nc3)c(F)c2)C(=O)O1` [AKG-9], in the series with M.tb Erdman, the MIC is more than 8 µg/mL. In addition, the MIC in the series on M.tb H37Rv is more than 8 µg/mL. Further, in [3], the IC50 amounted to 28.1 µg/mL (≈ 60 µM). Moreover, in [4], the IC50 was found to be 139 µg/mL (≈ 297 µM). For the same compound, in series [2], the “Selectivity Index (SI) Erd/HepG2” value is recorded as less than 3.5, the “Selectivity Index (SI) H37Rv/HepG2” value is 3.5, the “Selectivity Index (SI) Erd/VERO” value was less than 17.4 and the “Selectivity Index (SI) H37Rv/VERO” value is less than 17.4.
`CN(C)CCNc1ccc(-c2ccc(N3C[C@H](CO)OC3=O)cc2F)cn1` [AKG-12]: the MIC with M.tb Erdman is 4 µg/mL (≈ 10.7 µM). In the series with M.tb H37Rv, the MIC was found to be 4 µg/mL (≈ 10.7 µM). The IC50 in series [3] amounted to 67.6 µg/mL (≈ 181 µM). The IC50 in series [4] was found to be 89.1 µg/mL (≈ 238 µM). In [2], the “Selectivity Index (SI) Erd/HepG2” value is on record as 16.9, the “Selectivity Index (SI) H37Rv/HepG2” value amounted to 16.9, the “Selectivity Index (SI) Erd/VERO” value is 22.3 and the “Selectivity Index (SI) H37Rv/VERO” value amounted to 22.3.
As to `CN(C)CCn1nnc(-c2ccc(-c3ccc(N4C[C@H](CO)OC4=O)cc3F)cn2)n1` [AKG-16], in [5], the “Concentration % (w/w) of free base, visually clear solution” value is reported as 30.0 % (w/w). For the same compound, the “Maximum encapsulated drug payload” value is recorded as 668-675 g/mol PhL in [1] (0.5 mol % PEG) and 614-619 g/mol PhL in [1] (5 mol % PEG). Further, the maximum drug load in [1] (setting [10]) is recorded as 938-951 g/mol PhL.
As to `Cl.Cn1nnc(-c2ccc(-c3ccc(N4C[C@H](CNC(=O)CCN)OC4=O)cc3F)cn2)n1` [AKG-17], the MIC in the series with M.tb Erdman stood at 2 µg/mL. Further, in the series with M.tb H37Rv, the MIC was 2 µg/mL. Besides, the IC50 in series [3] worked out at 37.3 µg/mL. In addition, in series [2], the “Selectivity Index (SI) Erd/HepG2” value was determined as 18.7, the “Selectivity Index (SI) H37Rv/HepG2” value worked out at 18.7, the “Selectivity Index (SI) Erd/VERO” value is on record as more than 125 and the “Selectivity Index (SI) H37Rv/VERO” value is on record as more than 125.
Compound `Cl.Cn1nnc(-c2ccc(-c3ccc(N4C[C@H](CNC(=O)CCCN)OC4=O)cc3F)cn2)n1` [AKG-18] yielded an MIC against M.tb Erdman of 2 µg/mL. The MIC with M.tb H37Rv came to 2 µg/mL. Moreover, the half-inhibitory concentration (IC50) in [3] came out at 9.5 µg/mL. Besides, the IC50 in series [4] is more than 250 µg/mL. In addition, in series [2], the “Selectivity Index (SI) Erd/HepG2” value came to 4.8, the “Selectivity Index (SI) H37Rv/HepG2” value came to 4.8, the “Selectivity Index (SI) Erd/VERO” value is reported as more than 125 and the “Selectivity Index (SI) H37Rv/VERO” value is more than 125.
`Cl.Cn1nnc(-c2ccc(-c3ccc(N4C[C@H](CNCCN)OC4=O)cc3F)cn2)n1` [AKG-19] had an MIC in the series on M.tb Erdman of more than 8 µg/mL. Moreover, in the series on M.tb H37Rv, the MIC is more than 8 µg/mL. Also, the IC50 in series [3] is 42.2 µg/mL. Besides, in series [4], the IC50 is more than 250 µg/mL. In series [2], the “Selectivity Index (SI) Erd/HepG2” value was 5.3, the “Selectivity Index (SI) H37Rv/HepG2” value is 5.3, the “Selectivity Index (SI) Erd/VERO” value is listed as more than 31.3 and the “Selectivity Index (SI) H37Rv/VERO” value is on record as more than 31.3.
`Cl.NCCn1nnnc1-c1ccc(-c2ccc(N3C[C@H](CO)OC3=O)cc2F)cn1` [AKG-22]: the “SI-MPS MPS/H37” value in [6] was determined as 2.37.
Turning to `CN(C)CCn1nnc(-c2ccc(-c3ccc(N4C[C@H](CN)OC4=O)cc3F)cn2)n1` [AKG-28], the “Concentration % (w/w) of free base, visually clear solution” value in series [5] was 7.3 % (w/w).
Take `Cl.Cl.NCCn1nnc(-c2ccc(-c3ccc(N4C[C@H](CN)OC4=O)cc3F)cn2)n1` [AKG-29]: the MIC in the series on M.tb Erdman was 0.25 µg/mL; in [7] (read-out: MIC against the three MRSA strains), more than 50 µg/mL; in series [7] (read-out: MRSA MIC, strain ATCC BAA-1556), 50 µg/mL; in series [8], 50 µg/mL; in [9], more than 50 µg/mL. Also, the IC50 in series [3] came to 74.4 µg/mL; in [4], 110 µg/mL. Further, the “SI-MPS MPS/H37” value in series [6] came out at 32.80.
For the compound `CCN(CC)CCCn1nnc(-c2ccc(-c3ccc(N4C[C@H](CN)OC4=O)cc3F)cn2)n1.Cl` [AKG-31], the MIC against M.tb Erdman and with M.tb H37Rv was 0.5 µg/mL each time. The values for the IC50 in series [3] and in series [4] were 13.2 µg/mL and 112 µg/mL, respectively. The “Selectivity Index (SI) H37Rv/HepG2” value in [2] worked out at 26.4. In series [2], the “Selectivity Index (SI) H37Rv/VERO” value turned out to be 223.0.
In the case of `CCN(CC)CCn1nnc(-c2ccc(-c3ccc(N4C[C@H](CNC(C)=O)OC4=O)cc3F)cn2)n1` [AKG-39], the MIC, M. tuberculosis (Example 2) in the series on M.tb Erdman (strain not given) amounted to 0.5 µg/mL (≈ 1.01 µM). Besides, the “SI-MPS MPS/H37” value in [6] was 0.12.
For `CCN(CC)CCCn1nnc(-c2ccc(-c3ccc(N4C[C@H](CNC(C)=O)OC4=O)cc3F)cn2)n1` [AKG-40], the “SI-MPS MPS/H37” value in [6] is listed as 0.13.

Values taken from patent US20260083674A1, “OXAZOLIDINONE LIPOSOME COMPOSITIONS” (priority 2021, published 2026).
